{
  "source": "patent US20050148786A1",
  "about": "“Diimmonium compound and use thereof” (Nippon Kayaku Kabushiki Kaisha, priority 2003, published 2005)",
  "key": {"[1]": {"test": "maximum absorption wavelength (λmax) in dichloromethane", "type": "physicochemical", "description": "λmax: 1,102 nm (in dichloromethane);"}, "[2]": {"test": "thermal decomposition point (weight decrease starting point) by TG-DTA", "type": "physicochemical", "settings": "measured by TG-DTA", "description": "the melting point: around 170° C.; and the thermal decomposition point (the weight decrease starting point): around 280° C. (measured by TG-DTA)"}, "[3]": {"test": "Comparative test of molar absorption coefficient measurement", "type": "physicochemical", "settings": "in dichloromethane; in M-1·cm-1", "description": "The compounds obtained in the above-mentioned Examples were subjected to the measurement of molar absorption coefficient (ε) in dichloromethane."}, "[4]": {"test": "Stability test of moisture-and-heat resistance of near-IR absorption filter", "type": "physicochemical", "description": "1.2 part of each compound obtained in each Example was dissolved in 18.8 part of MEK. 80 part of a resin solution obtained by dissolving 25 part of an acrylic resin (Dianal BR-80, manufactured by Mitsubishi Rayon Co., Ltd.) in 75 part of MEK was mixed with the obtained solution to obtain a solution for coating. The solution was applied to form a film with a thickness of 2 to 4 μm on a polyester film and dried at 80° C. to obtain a near-IR absorption filter of the invention.\nThe obtained near-IR absorption filter was subjected to a stability test of moisture-and-heat resistance for 14 days in a constant temperature and constant humidity apparatus under 60° C. and 95% RH conditions. The filter was subjected to color measurement by a spectrophotometer before and after the test to calculate L*, a*, and b* values. If the + value of b* value is high, it means that the hue is yellowish and if b* value is close to 0, it means that the yellowish degree is low and filter is desirable and therefore, the hue evaluation and stability evaluation were done based on the b* value and its change."}, "[5]": {"test": "Stability test of light fastness of cyanine dye film", "type": "physicochemical", "description": "0.3 part of the cyanine dye (OM-57) was dissolved in 15 part of tetrafluoropropanol and 0.04 part of the Compound No. 3 was added to the obtained solution to produce a coating solution. The obtained coating solution was applied to a polycarbonate substrate by spin coating to form a dye film. The […] the conditions: light source output: 0.36 W/m^2; bath temperature: 24° C.; black panel temperature: 40° C.; humidity: 30% RH: by a Weatherometer (Ci4000, manufactured by Atlas Co.). After that, the remaining ratio of the cyanine dye was measured by a spectrophotometer.\nFor comparison, a dye film was formed and evaluated in the same manner, except that the compound described in Patent Document No. 3; hexafluoroantimonate of tetrakis[p-di(n-butyl)aminophenyl]phenylenediimmonium (Comparative Example 7: Compound No. 153); was used in place of the Compound No. 1."}, "[6]": {"test": "Stability test of light fastness of diimmonium compound thin film", "type": "physicochemical", "description": "0.1 part of the Compound No. 3 was added to 10 part of tetrafluoropropanol to produce a coating solution. The obtained coating solution was applied to a polycarbonate substrate by spin coating to form a thin film of the diimmonium compound. The […] source output: 0.36 W/m^2; bath temperature: 24° C.; black panel temperature: 40° C.; humidity: 30% RH: by a Weatherometer (Ci4000, manufactured by Atlas Co.). After that, the remaining ratio of the diimmonium compound was measured by a spectrophotometer.\nFor comparison, a dye film was formed and evaluated in the same manner, except that the compound described in Patent Document No. 3; hexafluoroantimonate of tetrakis[p-di(n-butyl)aminophenyl]phenylenediimmonium (Comparative Example 8: Compound No. 153); was used in place of the Compound No. 3."}, "[7]": {"test": "Comparative test of solubility measurement", "settings": "room temperature", "protocol": "The solubility was measured for the compounds obtained in the above-mentioned Examples at a room temperature in methyl ethyl ketone (MEK) and toluene."}, "[8]": {"settings": "Weatherometer 0.36 W/m^2, 24° C., 30% RH, 100-hour"}, "[9]": {"settings": "Weatherometer 0.36 W/m^2, 24° C., 30% RH, 150-hour"}},
  "data": [
    {"smiles": "N#CCCCN(CCCC#N)c1ccc([N+](=C2C=CC(=[N+](c3ccc(N(CCCC#N)CCCC#N)cc3)c3ccc(N(CCCC#N)CCCC#N)cc3)C=C2)c2ccc(N(CCCC#N)CCCC#N)cc2)cc1.O=S(=O)([N-]S(=O)(=O)C(F)(F)F)C(F)(F)F.O=S(=O)([N-]S(=O)(=O)C(F)(F)F)C(F)(F)F", "note": "[Compound No. 3]", "values": [
      {"measurement": "λmax", "setting": "[1]", "result": "1,064 nm"},
      {"measurement": "thermal decomposition point (the weight decrease starting point)", "setting": "[2]", "result": "around 282 °C"},
      {"measurement": "molar absorption coefficient (ε)", "setting": "[3]", "result": "109,000"},
      {"measurement": "b* value, difference", "setting": "[4]; 14-day after minus initial, 60° C. and 95% RH", "result": 2.5},
      {"measurement": "b* value, 14-day after", "setting": "[4]; acrylic resin filter, 14 days at 60° C. and 95% RH", "result": 6.1},
      {"measurement": "b* value, initial period", "setting": "[4]; acrylic resin filter, before test", "result": 3.6},
      {"measurement": "remaining ratio of cyanine dye (%), initial period", "setting": "[5]; OM-57 dye film with compound added, before irradiation", "result": 100, "unit": "%"},
      {"measurement": "remaining ratio of cyanine dye (%), 100-hour after", "setting": "[5]; [8]", "result": 47, "unit": "%"},
      {"measurement": "remaining ratio of cyanine dye (%), 150-hour after", "setting": "[5]; [9]", "result": 27, "unit": "%"},
      {"measurement": "remaining ratio of diimmonium compound (%), 100-hour after", "setting": "[6]; [8]", "result": 88, "unit": "%"},
      {"measurement": "remaining ratio of diimmonium compound (%), 150-hour after", "setting": "[6]; [9]", "result": 86, "unit": "%"},
      {"measurement": "remaining ratio of diimmonium compound (%), initial period", "setting": "[6]; thin film on polycarbonate, before irradiation", "result": 100, "unit": "%"},
      {"measurement": "solubility in MEK", "setting": "[7]; methyl ethyl ketone", "result": 2, "unit": "%"},
      {"measurement": "solubility in toluene", "setting": "[7]; toluene", "result": "insoluble"}
    ]}
  ]
}
